From patent US20260284203A1 (priority 2023, published 2026)
Like-named read-outs stand apart in the source and are kept apart here.

What was measured:
[1] = molecular target: purified capsid protein assembly domain, Cp149 (Hepatitis B virus subtype adyw, UniProt P03147); assay: Capsid assembly assay (size exclusion chromatography); assay type: biochemical, HBV; conditions: 10 μM Cp149 dimer, 20 μM compound, 24 h at room temperature, versus capsid control
Method: Stimulation of HBV virus assembly is a known property of CAM molecules. As structural changes can have unpredictable effects on function, a capsid assembly assay was conducted with exemplary rCAM DP41-0012 to evaluate whether the construct retained CAM activity. Relative peak HBV capsid volume following exposure to the exemplary rCAM was determined in comparison to dimer, DMSO, and capsid controls, along with CAM compounds bersacapavir and NVR-3-778.
To test capsid assembly, samples or controls were incubated for 20 minutes with purified capsid protein assembly domain, Cp149, so that final conditions were 10 μM Cp149 dimer 20 μM compound or control 2% DMSO 50 mM TrisHCl pH 7.5. To this mixture was added an equal volume of 600 mM NaCl 50 mM TrisHCl pH 7.5. Reactions were equilibrated for 24 h at room temperature and the resolved by size exclusion chromatography using a 10/300 Superose6 column running at 0.5 ml/minute. The running buffer for this column was 50 mM TrisHCl 300 mM NaCl. Elution profiles were recorded by absorbance at 280 nm. Integrated capsid peaks eluting between 16 and 20 minutes and dimer peaks eluting between 34 and 39 minutes were reported.

Supercoiled plasmid = assay: In vitro DNA nicking assay; assay type: biochemical, E. coli; conditions: 10 μM CuCl2, 3 hours at room temperature (21° C.) in the dark
Method: The capacity of rCAM compounds to cause DNA damage was evaluated using an in vitro DNA nicking assay. Specifically, the double stranded DNA (dsDNA) nicking activity of exemplary rCAM DP41-0012 was compared to CAM compounds bersacapavir and NVR-3-778, and DMSO controls.
Supercoiled plasmid, the substrate for this assay, was purified from E. coli, using a Qiagen miniprep kit. A “master mix” of 3 ng/μl Miniprep DNA, 10 μM CuCl2, 20 mM TrisHCl pH7.5 was prepared. Samples included 99 μl of master mix plus 1 μl of compound or control. Reactions were incubated for 3 hours at room temperature (21° C.) in the dark. Aliquots of the reactions (20 μl) were resolved on a 0.8% TAE agarose gel with 1/20,000 SYBR Safe stain electrophoresed at 80V for 90 minutes. The gel was visualized on a ChemidocMP in fluorescein blot mode.

[2] = test system: in vitro transcribed pregenomic HBV RNA (pgRNA); assay: pgRNA activity assay by denaturing agarose gel electrophoresis; assay type: biochemical; conditions: for RNA signal on gel, free pgRNA: 100 μM; for RNA signal on gel, free pgRNA / RNA bands on gel, free pgRNA: 1% or 10% DMSO; for RNA bands on gel, free pgRNA / pgRNA band on denaturing agarose gel: 900 μM; for pgRNA band on denaturing agarose gel: 1 hour
Cp149 dimers = Cp149 dimers (Hepatitis B virus subtype adyw, UniProt P03147); assay: Cp149 dimer assembly with rCAM visualized by transmission electron microscopy; assay type: biochemical, HBV; conditions: dimer:rCAM 1:5, NaCl 300 mM, overnight at 25° C.
Method: Cp dimers were assembled with HAP-PEG2-CBL and HAP-PEG4-CBL to verify the HAP backbone's ability to bind the dimer-dimer interface. Cp149 dimers were mixed with each rCAM in a 1:5 ratio (dimer:rCAM). Assembly was induced by addition of NaCl (300 mM) followed by incubation overnight at 25° C. Assembly products were visualized via transmission electron microscopy (TEM) (FIG. 10). Assembly in NaCl alone led to normal spherical capsids (FIG. 10A). […] Boume, C., et al., J Virol 82:10262, 2008.

[3] = test system: in vitro transcribed pregenomic HBV RNA (pgRNA); assay type: biochemical; conditions: for effect on pgRNA amplification / RNA transcription (RT-qPCR, Cp gene): either temperature (25° C. or 37° C.)
[4] = 25° C. and 37° C. (both temperature conditions)

Cp149 dimers, sequence (P03147 1-149): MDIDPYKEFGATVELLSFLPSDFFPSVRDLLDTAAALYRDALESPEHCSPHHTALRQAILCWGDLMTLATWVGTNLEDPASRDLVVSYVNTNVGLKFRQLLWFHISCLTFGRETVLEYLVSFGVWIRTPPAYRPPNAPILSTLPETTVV
purified capsid protein assembly domain, Cp149, sequence (P03147 1-149): as above

Cn1cc(S(=O)(=O)NCCNC(=O)c2cc(O)c(O)c(O)c2)cc1C(=O)Nc1ccc(F)c(C#N)c1 [DP41-0012, N-(3-cyano-4-fluorophenyl)-1-methyl-4-(N-(2-(3,4,5-trihydroxybenzamido)ethyl)-sulfamoyl)-1H-pyrrole-2-carboxamide]
relative peak capsid volume [1]: exceeded that of the capsid control | plasmid DNA form seen on agarose gel (dsDNA nicking activity) (Supercoiled plasmid): DNA band corresponding to the size of a nicked circle

COC(=O)C1=C(CN2CCN(C(=O)CCOCCOCCOC(=O)CCCc3ccc(N(CCCl)CCCl)cc3)CC2)NC(c2ccccn2)=NC1c1ccc(F)cc1Cl (stereo not drawn) [HAP-PEG2-CBL, Methyl 6-((4-(3-(2-(2-((4-(4-(bis(2-chloroethyl)amino)phenyl)butanoyl)oxy)ethoxy)ethoxy)propanoyl)piperazin-1-yl)methyl)-4-(2-chloro-4-fluorophenyl)-2-(pyridin-2-yl)-1,4-dihydropyrimidine-5-carboxylate]
RNA signal on gel, free pgRNA ([2]; 37° C.): slight reduction in RNA signal | RNA bands on gel, free pgRNA ([2]; 37° C.): almost complete dissipation of RNA bands | assembly products seen by TEM (Cp149 dimers): both spherical capsids, faceted/broken capsids, and flat, aberrant structures

COC(=O)C1=C(CN2CCN(C(=O)CCOCCOCCOCCOCCOC(=O)CCCc3ccc(N(CCCl)CCCl)cc3)CC2)NC(c2ccccn2)=NC1c1ccc(F)cc1Cl (stereo not drawn) [HAP-PEG4-CBL]
RNA signal on gel, free pgRNA ([2]; 37° C.): slight reduction in RNA signal | RNA bands on gel, free pgRNA ([2]; 37° C.): almost complete dissipation of RNA bands | assembly products seen by TEM (Cp149 dimers): floret-shaped, aberrant particles

O=C(Nc1cc(F)c(F)c(F)c1)c1ccc(F)c(S(=O)(=O)N2CCC(O)CC2)c1 [NVR-3-778]
plasmid DNA form seen on agarose gel (dsDNA nicking activity) (Supercoiled plasmid): supercoiled plasmid substrate was detectable

CN(C)c1nc(N(C)C)nc(N(C)C)n1 [altretamine]
effect on pgRNA amplification / RNA transcription (RT-qPCR, Cp gene) ([3]; 900 μM, 1 hour): does affect RNA transcription

C[C@H](NS(=O)(=O)c1cc(C(=O)Nc2ccc(F)c(C#N)c2)n(C)c1)C(F)(F)F [bersacapavir]
plasmid DNA form seen on agarose gel (dsDNA nicking activity) (Supercoiled plasmid): supercoiled plasmid substrate was detectable

O=C(O)CCCc1ccc(N(CCCl)CCCl)cc1 [chlorambucil]
pgRNA band on denaturing agarose gel [2, 4]: completely dissipate RNA | reduction in RNA amplification (RT-qPCR, Cp gene) ([3]; 900 μM, 1 hour, 25° C.): approximately 1 log | decrease in RNA levels (RT-qPCR, Cp gene) ([3]; 900 μM, 1 hour, 37° C.): 4 log

N.N.[Cl][Pt][Cl] [cisplatin]
pgRNA band on denaturing agarose gel [2, 4]: faster migrating and smeared bands | decrease in RNA levels (RT-qPCR, Cp gene) [3]: 3 log | reduction in RNA amplification (RT-qPCR, Cp gene) [3]: approximately 1 log

CO[C@@]12[C@H](COC(N)=O)C3=C(C(=O)C(C)=C(N)C3=O)N1C[C@@H]1N[C@@H]12 [mitomycin C]
effect on pgRNA amplification / RNA transcription (RT-qPCR, Cp gene) ([3]; 900 μM, 1 hour): does affect RNA transcription

phleomycin
pgRNA band on denaturing agarose gel ([2]; 37° C.): completely disappeared | pgRNA band on denaturing agarose gel ([2]; room temperature (25° C.)): reduced in width | effect on pgRNA amplification / RNA transcription (RT-qPCR, Cp gene) ([3]; 900 μM, 1 hour): does not suppress pgRNA amplification appreciably
